Data reported in patent publication US4252807A, “Fused pyrimidine derivatives and antiatherosclerotic methods of treatment with them” (Chincin Gyogyszer es Vegyeszeti Termekek Gyara Rt., priority 1976, dated 1981).

Columns and labels:
[1] = test system: cholesterin-fed rabbit atherosclerosis model; assay: cholesterin-fed rabbit atherosclerosis model (Table 1); format: in vivo; set-up: Serum triglyceride: unit not given here; conditions: for Serum triglyceride / Serum total cholesterin / Aorta total cholesterin / Aorta total lipid / Serum total lipid: rabbit, cholesterin-fed; for Serum triglyceride: Control-1 75, Control-2 103; for Serum total cholesterin: Control-1 326, Control-2 1504; for Aorta total cholesterin: Control-1 331, Control-2 921; for Aorta total lipid: Control-1 1928, Control-2 2575; for serum lipid, aorta lipid and cholesterin lipid level: in words, from the data of Table 1 (rabbit, 50 mg/kg)
normolyphaemic rats = assay: normolyphaemic rats, serum lipids (Table 2); format: in vivo, rat; set-up: Serum triglyceride: unit not given here; conditions: for Serum cholesterine: Control 103; for Serum triglyceride: Control 185.1
[2] = dose 50 mg/kg, Control-1 (normal feed) 658, Control-2 (cholesterin) 2374

Compound	Serum triglyceride ([1]; dose 50 mg/kg)	Serum total cholesterin ([1]; dose 50 mg/kg)	Aorta total cholesterin ([1]; dose 50 mg/kg)	Aorta total lipid ([1]; dose 50 mg/kg)	Serum total lipid [1, 2]	Serum cholesterine (normolyphaemic rats; 50 mg/kg p.o.)	Serum triglyceride (normolyphaemic rats; 50 mg/kg p.o.)	also measured
6-methyl-9-chloro-phenyl)-methylene-4-oxo-6,7,8,9-tetrahydro-4H-pyrido(1,2a)pyrimidine-3-carboxylic acid ethylester	190	1531	365	2461	2547	–	–	–
CCOC(=O)c1cnc2n(c1=O)C(C)CCC2=Cc1cccn1C (centres unmarked) [A, 6-methyl-9-(N-methyl-2-pyrrolyl)-methylene-4-oxo-6,7,8,9-tetrahydro-4H-pyrido(1,2a) pyrimidine-3-carboxylic acid ethylester]	121	1419	958	2496	2309	–	–	–
CCOC(=O)C=C1CCC(C)n2c1ncc(C(=O)OCC)c2=O (centres unmarked) [C, 6-methyl-9-(ethoxycarbonyl-methylene)-4-oxo-6,7,8,9-tetrahydro-4H-pyrido(1,2a)-purimidine-3-carboxylic acid ethylester]	119	1176	353	1878	1903	–	–	serum lipid, aorta lipid and cholesterin lipid level [1]: significant decrease
CCOC(=O)C(C)(C)Oc1ccc(Cl)cc1 [Chlofibrate, reference compound]	–	–	–	–	–	–	–	Serum triglyceride ([1]; dose 250 mg/kg): 115; Serum total cholesterin ([1]; dose 250 mg/kg): 1137; Aorta total cholesterin ([1]; dose 250 mg/kg): 787; Serum total lipid ([1]; dose 250 mg/kg, Control-1 658, Control-2 2374): 1938; Aorta total lipid ([1]; dose 250 mg/kg): 2227; weight of the liver ([1]; test animals): increase the weight of the liver; Serum cholesterine (normolyphaemic rats; 250 mg/kg p.o.): 63.9; Serum triglyceride (normolyphaemic rats; 250 mg/kg p.o.): 144.1
CCOC(=O)c1cnc2n(c1=O)C(C)CCC2CC(=O)O (centres unmarked) [D, 6-methyl-3-ethoxycarbonyl-4-oxo-6,7,8,9-tetrahydro-4H-pyrido(1,2a)pyrimidine-9-yl-acetic acid]	97	972	186	1355	1638	–	–	serum lipid, aorta lipid and cholesterin lipid level [1]: significant decrease
CCOC(=O)C=C1CCCn2c1ncc(C(=O)OCC)c2=O [E, 9-(ethoxycarbonyl-methylene)-4-oxo-6,7,8,9-tetrahydro-4H-pyrido(1,2a)pyrimidine-3-carboxylic acid ethylester]	–	–	–	–	–	86.5	127.9	–
CCOC(=O)C1=CNC2C(CC(=O)O)CCCN2C1=O (centres unmarked) [F, 9-(carboxyl-methyl)-4-oxo-1,6,7,8,9,9a-hexahydro-4H-pyrido(1,2a)pyrimidine-3-carboxylic acid ethylester]	–	–	–	–	–	88.0	155.5	–
CCOC(=O)c1cnc2n(c1=O)CCCC2CC(=O)O (centres unmarked) [G, 9-(carboxyl-methyl)-4-oxo-6,7,8,9-tetrahydro-4H-pyrido-(1,2a)pyrimidine-3-carboxylic acid ethylester]	–	–	–	–	–	88.0	127.5	–
COC(=O)C=C1CCC(C)n2c1ncc(C(=O)OC)c2=O (centres unmarked) [H, 9-(methoxycarbonyl-methylene)-6-methyl-4-oxo-6,7,8,9-tetrahydro-4H-pyrido(1,2a)pyrimidine-3-carboxylic acid methylester]	–	–	–	–	–	90.2	107.9	–
